Test [1] concerns Phosphatidyl inositol-specific phospholipase C. Put plainly: Phosphatidyl inositol-specific phospholipase C assay with sonicated human platelets, release of water-soluble 3H-inositol counts. The format is biochemical. The settings on record: 250 μm PI, 10 minutes. Here is the method:
This invention also relates to a method of treating inflammation in patients using a compound of Formula (I) as the active constituent.
A. Protocol - Phosphatidyl inositol-specific
phospholipase C assays. The assays were performed as
follows: A mixture of PI (Sigma) and
(^3 H--inositol)-PI in CHCl3 are blown to dryness
under N2 and sonicated into a buffer containing DOC
and CaCl2 so that the final concentrations in each
0.5 mg/ml DOC containing an appropriate amount of
in 50 mM Hepes, 100 mM NaCl, 0.5 mg/ml BSA pH 7.
An aliquot of sonicated human platelets,
5 × 10^9 /ml, is added; the reaction is stopped after
10 minutes with a chloroform/methanol/H2 O solution
and the upper water phase is counted to detect
water-soluble inositol counts. The pH was checked
during each assay using pH paper to verify that none
of the compounds affected this parameter.

A further test has as its system phospholipase C. The settings on record: background statement, no concentration given; cited from earlier work.

We go through 3 compounds from patent US4474806A, “Sulfonyl or carbonyl inositol derivatives useful as anti-inflammatory/analgesic agents” (Merck & Co., Inc., priority 1982, dated 1984).

In the case of `CCCCCCCCCCCCCCCC(=O)OC1C(O)C(O)C(O)C(O)C1O` (stereo not shown) [myo-inositol-5 (or 6)-palmitate], the “% Inhibition (specific phospholipase C inhibition)” value in test [1] (Conc. 0.122 mM) was 7%; in test [1] (Conc. 1.22 mM) it was 55%. Regarding `CCCCCCCCCCCCNC(=O)OC1C(O)C(O)C(O)C(O)C1O` (stereo not shown) [myo-inositol-6 (or 5)-dodecanecarbamate], the “% Inhibition (specific phospholipase C inhibition)” value in test [1] (Conc. 0.8 mM) was found to be 16%. `c1ccc2c(c1)Nc1ccccc1S2` [phenothiazine]: in the test with phospholipase C, the “inhibition of phospholipase C” value is on record as “inhibited”.
